Laboratory results: ChEMBL document CHEMBL4177730, “Rational modification of semaxanib and sunitinib for developing a tumor growth inhibitor targeting ATP binding site of tyrosine kinase” (2018)
Active and inactive are the calls of the source.

Assays:
Assay type in all cases: functional, cell-based
A549 = experiment: Growth inhibition of human A549/ATCC cells at 10 uM after 48 hrs by sulforhodamine B assay
Hs-578T = experiment: Growth inhibition of human Hs 578T cells at 10 uM after 48 hrs by sulforhodamine B assay
SNB-75 = experiment: Growth inhibition of human SNB75 cells at 10 uM after 48 hrs by sulforhodamine B assay
MOLT-4 = experiment: Growth inhibition of human MOLT4 cells at 10 uM after 48 hrs by sulforhodamine B assay
MDA-MB-231 = experiment: Growth inhibition of human MDA-MB-231 cells at 10 uM after 48 hrs by sulforhodamine B assay
RPMI-8226 = experiment: Growth inhibition of human RPMI8226 cells at 10 uM after 48 hrs by sulforhodamine B assay
EKVX = experiment: Growth inhibition of human EKVX cells at 10 uM after 48 hrs by sulforhodamine B assay
TK-10 = experiment: Growth inhibition of human TK10 cells at 10 uM after 48 hrs by sulforhodamine B assay
PC-3 = experiment: Growth inhibition of human PC3 cells at 10 uM after 48 hrs by sulforhodamine B assay
Malme-3M = experiment: Growth inhibition of human MALME-3M cells at 10 uM after 48 hrs by sulforhodamine B assay
MDA-MB-468 = experiment: Growth inhibition of human MDA-MB-468 cells at 10 uM after 48 hrs by sulforhodamine B assay
HT-29 = experiment: Growth inhibition of human HT-29 cells at 10 uM after 48 hrs by sulforhodamine B assay
UACC-62 = experiment: Growth inhibition of human UACC62 cells at 10 uM after 48 hrs by sulforhodamine B assay
NCI-H522 = experiment: Growth inhibition of human NCI-H522 cells at 10 uM after 48 hrs by sulforhodamine B assay
A498 = experiment: Growth inhibition of human A498 cells at 10 uM after 48 hrs by sulforhodamine B assay
M14 = experiment: Growth inhibition of human M14 cells at 10 uM after 48 hrs by sulforhodamine B assay
OVCAR-5 = experiment: Growth inhibition of human OVCAR5 cells at 10 uM after 48 hrs by sulforhodamine B assay
SK-OV-3 = experiment: Growth inhibition of human SKOV3 cells at 10 uM after 48 hrs by sulforhodamine B assay
NCI/ADR-RES = experiment: Growth inhibition of human NCI-ADR-RES cells at 10 uM after 48 hrs by sulforhodamine B assay
MDA-MB-435 = experiment: Growth inhibition of human MDA-MB-435 cells at 10 uM after 48 hrs by sulforhodamine B assay
CCRF-CEM = experiment: Growth inhibition of human CCRF-CEM cells at 10 uM after 48 hrs by sulforhodamine B assay
SF-539 = experiment: Growth inhibition of human SF539 cells at 10 uM after 48 hrs by sulforhodamine B assay
MCF7 = experiment: Growth inhibition of human MCF7 cells at 10 uM after 48 hrs by sulforhodamine B assay
OVCAR-8 = experiment: Growth inhibition of human OVCAR8 cells at 10 uM after 48 hrs by sulforhodamine B assay
SNB-19 = experiment: Growth inhibition of human SNB19 cells at 10 uM after 48 hrs by sulforhodamine B assay
SR = experiment: Growth inhibition of human SR cells at 10 uM after 48 hrs by sulforhodamine B assay
SW-620 = experiment: Growth inhibition of human SW620 cells at 10 uM after 48 hrs by sulforhodamine B assay
NCI-H460 = experiment: Growth inhibition of human NCI-H460 cells at 10 uM after 48 hrs by sulforhodamine B assay
SK-MEL-2 = experiment: Growth inhibition of human SK-MEL-2 cells at 10 uM after 48 hrs by sulforhodamine B assay
LOX IMVI = experiment: Growth inhibition of human LOXIMVI cells at 10 uM after 48 hrs by sulforhodamine B assay
RXF 393 = experiment: Growth inhibition of human RXF393 cells at 10 uM after 48 hrs by sulforhodamine B assay
SF-295 = experiment: Growth inhibition of human SF295 cells at 10 uM after 48 hrs by sulforhodamine B assay
HCT-15 = experiment: Growth inhibition of human HCT15 cells at 10 uM after 48 hrs by sulforhodamine B assay
COLO 205 = experiment: Growth inhibition of human COLO205 cells at 10 uM after 48 hrs by sulforhodamine B assay
NCI-H226 = experiment: Growth inhibition of human NCI-H226 cells at 10 uM after 48 hrs by sulforhodamine B assay
SF-268 = experiment: Growth inhibition of human SF268 cells at 10 uM after 48 hrs by sulforhodamine B assay
NCI-H23 = experiment: Growth inhibition of human NCI-H23 cells at 10 uM after 48 hrs by sulforhodamine B assay
HOP-62 = experiment: Growth inhibition of human HOP62 cells at 10 uM after 48 hrs by sulforhodamine B assay
786-0 = experiment: Growth inhibition of human 786-0 cells at 10 uM after 48 hrs by sulforhodamine B assay
DU-145 = experiment: Growth inhibition of human DU145 cells at 10 uM after 48 hrs by sulforhodamine B assay
SN12C = experiment: Growth inhibition of human SN12C cells at 10 uM after 48 hrs by sulforhodamine B assay
HL-60(TB) = experiment: Growth inhibition of human HL-60(TB) cells at 10 uM after 48 hrs by sulforhodamine B assay
KM12 = experiment: Growth inhibition of human KM12 cells at 10 uM after 48 hrs by sulforhodamine B assay
HOP-92 = experiment: Growth inhibition of human HOP92 cells at 10 uM after 48 hrs by sulforhodamine B assay
CAKI-1 = experiment: Growth inhibition of human CAKI-1 cells at 10 uM after 48 hrs by sulforhodamine B assay
SK-MEL-28 = experiment: Growth inhibition of human SK-MEL-28 cells at 10 uM after 48 hrs by sulforhodamine B assay
U-251 = experiment: Growth inhibition of human U251 cells at 10 uM after 48 hrs by sulforhodamine B assay
ACHN = experiment: Growth inhibition of human ACHN cells at 10 uM after 48 hrs by sulforhodamine B assay
IGROV-1 = experiment: Growth inhibition of human IGROV1 cells at 10 uM after 48 hrs by sulforhodamine B assay
HCC 2998 = experiment: Growth inhibition of human HCC2998 cells at 10 uM after 48 hrs by sulforhodamine B assay
OVCAR-3 = experiment: Growth inhibition of human OVCAR3 cells at 10 uM after 48 hrs by sulforhodamine B assay
K562 = experiment: Growth inhibition of human K562 cells at 10 uM after 48 hrs by sulforhodamine B assay
BT-549 = experiment: Growth inhibition of human BT549 cells at 10 uM after 48 hrs by sulforhodamine B assay
UO-31 = experiment: Growth inhibition of human UO31 cells at 10 uM after 48 hrs by sulforhodamine B assay
NCI-H322M = experiment: Growth inhibition of human NCI-H322M cells at 10 uM after 48 hrs by sulforhodamine B assay
HCT-116 = experiment: Growth inhibition of human HCT116 cells at 10 uM after 48 hrs by sulforhodamine B assay
OVCAR-4 = experiment: Growth inhibition of human OVCAR4 cells at 10 uM after 48 hrs by sulforhodamine B assay
SK-MEL-5 = experiment: Growth inhibition of human SK-MEL-5 cells at 10 uM after 48 hrs by sulforhodamine B assay
T47D = experiment: Growth inhibition of human T47D cells at 10 uM after 48 hrs by sulforhodamine B assay

Measured: growth inhibition (GI)

O=C1/C(=C\c2cccn2C(=O)c2ccc(Cl)s2)c2ccccc2N1c1c(Cl)cccc1Cl
inactive: all assays above

O=C1/C(=C\c2cccn2C(=O)c2ccc(Cl)cc2)c2ccccc2N1c1c(Cl)cccc1Cl
inactive: all assays above
